Where a name gives a salt, the structure may show the parent alone.
Tests used:
CRF1 receptor = biological target: T1, CRF1 receptor (Homo sapiens, UniProt P34998); assay: CRF1 Receptor Binding Assay; details: competition binding with [125I]Tyr0-ovine CRF, human IMR-32 neuroblastoma cell membranes; pKi derived from pIC50
T1 construct: Cell membranes are prepared according the method of Dieterich and DeSouza (1996); endogenous in cells; host or cells: IMR-32 human neuroblastoma cells (membrane preparation)
T1 sequence (P34998 24-415): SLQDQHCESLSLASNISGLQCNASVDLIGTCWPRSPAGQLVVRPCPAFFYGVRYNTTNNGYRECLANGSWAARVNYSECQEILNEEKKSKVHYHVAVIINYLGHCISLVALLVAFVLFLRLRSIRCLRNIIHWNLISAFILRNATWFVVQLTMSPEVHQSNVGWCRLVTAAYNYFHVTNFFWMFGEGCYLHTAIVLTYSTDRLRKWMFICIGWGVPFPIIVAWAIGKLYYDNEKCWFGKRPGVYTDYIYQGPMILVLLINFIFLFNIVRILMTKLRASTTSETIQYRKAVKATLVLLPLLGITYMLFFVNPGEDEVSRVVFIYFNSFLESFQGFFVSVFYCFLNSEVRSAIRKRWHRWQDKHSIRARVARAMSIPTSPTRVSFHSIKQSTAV
Experimental: CRF1 Receptor Binding Assay
Human IMR-32 neuroblastoma cells are grown to 80% confluence in MEM medium containing 10% heat-inactivated FBS, lmM Sodium Pyruvate, and 0.1 mM nonessential amino acids. Cell membranes are prepared according the method of Dieterich and DeSouza (1996). The cells (˜5E+9) are resuspended in 10 volumes of wash buffer (5 mM Tris HCl, 10 mM MgCl2, 2 mM EGTA, pH 7.4 at RT), homogenized with a Polytron, and then centrifuged at 45,000 G for 20 min at 4° C. The membrane pellets are washed twice with wash buffer (45,000 G for 20 min at 4° C.) and then resuspended (50 mM Tris HCl, 10 mM MgCl2, 2 mM EGTA, pH 7.4 at RT). Protein concentration is determined using Pierce reagents and BSA as standard. Aliquots of 1-1.5 mL are stored at −80° C. until binding assay.
The competition binding assay is performed in a final volume of 250 μl, which contains assay buffer (50 mM Tris-HCl, 10 mM MgCl2, 2 mM EGTA, 0.2% BSA, 0.1 mM bacitracin and 100 kIU/mL aprotinin pH 7.2 at R.T.), 0.05 nM [^125I]Tyr^0-ovine CRF (Du Pont New England Nuclear), 50 μg of membrane protein, and test compound at various concentrations. Non-specific binding is determined with 1 uM hCRF. Binding reactions are terminated after 2 hr incubation at 25° C. by filtering through 96-w GF/C filter plate using a Packard Harvester (Filtermate 196). The 96-w filter plate is pre-treated with 0.3% polyethyleneimine and pre-washed with washing buffer (50 mM Tris-HCl, 10 mM MgCl2, 2 mM EGTA, 0.2% BSA, pH 7.2 at 4° C.). Unbound radioactivity is removed by four rapid washes (0.8 ml/well) with wash buffer. The radioactivity is quantified using a Packard TopCount. Data are analyzed using non-linear iterative curve fitting to obtain IC50 and Hill slope values. PKi values are derived from pIC50 values (−log of IC50).

Row | Ki (CRF1 receptor) [nM] | melting point [°C] | Structure (SMILES)
1 | 1620 |  | CCCc1ccn(-c2nc(C)nc(Nc3c(Cl)cc(Cl)cc3Cl)c2C)n1 [[2,5-Dimethyl-6-(3-propyl-pyrazol-1-yl)-pyrimidin-4-yl]-(2,4,6-trichloro-phenyl)-amine]
2 | 1910 |  | Cc1cn(-c2nc(C)nc(Nc3c(Cl)cc(Cl)cc3Cl)c2Cl)cn1 [[5-Chloro-2-methyl-6-(4-methyl-imidazol-1-yl)-pyrimidin-4-yl]-(2,4,6-trichloro-phenyl)-amine]
3 | 1070 |  | Cc1ccn(-c2cc(Nc3c(Cl)cc(Cl)cc3Cl)nc(C)n2)n1 [[2-Methyl-6-(3-methyl-pyrazol-1-yl)-pyrimidin-4-yl]-(2,4,6-trichloro-phenyl)-amine]
4 |  | 245 to 247 | Cc1ccn(-c2cc(Nc3c(Cl)cc(Cl)cc3Cl)nc(C)n2)n1 (as salt: hydrochloride) [[2-Methyl-6-(3-methyl-pyrazol-1-yl)-pyrimidin-4-yl]-(2,4,6-trichloro-phenyl)-amine]
